Data published in PubChem BioAssay AID2060607 (Molecular Pharmacology Branch, DTP, NCI, 2025).

Test system: 876862-298-R-J1-PDC complex spheroids, viability % test/control
Assay: Anticancer human tumor 876862-298-R-J1-PDC patient-derived endometrial carcinoma cell line growth inhibition [CLK]
Conditions: for IC50: curve of first compound; for viability, T/C: stronger effect = lower value
Source text: A high-throughput screen of multi-cell type tumor spheroids was designed to identify active combinations of […] and targeted small molecules. Complex spheroids include a stromal component modeled by human endothelial cells (HUVEC) and fibroblasts modeled by human mesenchymal stem cells (MSCs). The concentration ranges selected for each drug and investigational agent were based upon clinically achievable concentrations if the clinical Cmax of the agent was known.
Compounds. The drugs and investigational agents: cirtuvivint (SM08502; NSC835563), CC-671 (NSC850746), vemurafenib (NSC761431), tapotoclax (NSC804041), sotorasib (NSC818433), adagrasib (NSC831453), MRTX-1133 (NSC836407), BAY2416964 (NSC825713), copanlisib (NSC816437), inavolisib (NSC800729), abemaciclib (NSC768073), osimertinib (NSC779217), entinostat (NSC756642), eltanexor (KPT-8602, NSC794443), venetoclax (NSC766270), ceralasertib (NSC777638), bortezomib (NSC756655), olaparib (NSC753686), talazoparib (NSC767125), alisertib (NSC759677), peposertib (NSC802822), gemcitabine (NSC613327), 5-fluorouracil (NSC19893), SN-38 (NSC673596), oxaliplatin (NSC266046), paclitaxel (NSC125973), and doxorubicin (NSC123127), were obtained from the National Cancer Institute (NCI) Developmental Therapeutics Program Chemical Repository. The FDA-approved anticancer drug set is available from the Developmental Therapeutics Program at https://dtp.cancer.gov/organization/dscb/obtaining/available plates.htm. […] The stock solutions were prepared in dimethyl sulfoxide (DMSO, Sigma-Aldrich, St. Louis, MO, cat. D2650), except for the platinum complexes which were prepared in saline (Quality Biological, Gaithersburg, MD, cat. 114-055-101), at 800-fold the tested concentration and stored at -70 degrees C prior to their use. All drugs and investigational agents were tested over a range starting from a high concentration at or near the clinical Cmax and decreasing in half-log increments. If the clinical Cmax for an agent had not been determined, the highest concentration tested was 10 microM.
Cell Culture. All cells were maintained in an incubator at 37 degrees C and 5% CO2 with 95% humidity. The PDC lines were cultured according to standard operating procedures established by the NCI PDMR. Briefly, all PDCs were thawed and cultured in Matrigel-coated flasks prepared with a working solution of 1X Ham's F-12 nutrient mix, without supplementation (Invitrogen, Waltham, MA, cat. 11765054), 100 U/mL penicillin-streptomycin (Invitrogen, cat. 15140122), and 2.5% Matrigel (Corning Inc., Corning, NY, cat. 354248) for the first three passages. The 947758-054-R-J2-PDC line was cultured in 6B/Colon 1A media, which includes advanced DMEM/F-12 (Thermo Fisher Scientific, cat. 12634028), 10 mM HEPES (Thermo Fisher Scientific, cat. 15630080), 1X GlutaMAX supplement (Thermo Fisher Scientific, cat. 35050061), 0.1 mg/mL primocin (InvivoGen, cat. ant-pm-2), 10% defined fetal bovine serum, heat inactivated (HyClone Laboratories Inc., cat. SH30070.03HI), 1.25 mM N-Acetyl-L-cysteine (Sigma-Aldrich, cat. A9165), 10 mM nicotinamide (Sigma-Aldrich, cat. N0636), 1X B-27 supplement (Thermo Fisher Scientific, cat. 17504044), 1X N-2 supplement (Thermo Fisher Scientific, cat. 17502048), and 10 microM Y-27632 dihydrochloride (Tocris Bioscience, cat. 1254). The 876862-298-R-J1-PDC was cultured in 6E media, which includes all 6B/Colon 1A media components plus 50% L-WRN conditioned media (ATCC, cat. CRL-3276), 50 ng/mL recombinant human EGF recombinant protein (hEGF; Thermo Fisher Scientific, cat. PHG0311), 10 ng/mL recombinant human fibroblast growth factor 10 (hGFG-10; PeproTech, cat. 100-26), 1 ng/mL recombinant human fibroblast growth factor 2 (hFGF-2; PeproTech, cat. 100-18B), and 1 µM prostaglandin E2 (PGE2; Tocris, cat. 2296). The 227483-062-R1-J1-PDC line was cultured in Panc media, containing all 6E components except hFGF-2, with the addition of 500 nM SB-431542 (Selleckchem, cat. S1067) and 10 nM gastrin (Tocris, cat. 3006). […]
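Note: spheroids exposed to drugs for 7 days before readout.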
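Throughout, for viability, T/C: 100% = DMSO vehicle control wells.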

In the case of `C#Cc1c(F)ccc2cc(O)cc(-c3ncc4c(N5CC6CCC(C5)N6)nc(OCC56CCCN5CC(F)C6)nc4c3F)c12` (configuration not stated) + CN1CCN(c2cc(C(=O)Nc3cc4cc(-c5cnn(C)c5)ccc4cn3)ccn2)CC1, the IC50 (second compound 0.0316 µM) is reported as > 10 µM, the IC50 (second compound 0.1 µM) is reported as 0.501 µM and the IC50 (second compound 0.316 µM) is reported as < 0.0316 µM. The IC50 (second compound 1 µM) was < 0.0316 µM, the IC50 (second compound 3.16 µM) was < 0.0316 µM and the IC50 (second compound 10 µM) was < 0.0316 µM. For the same compound, the viability, T/C (second compound 0.0316 µM, first compound 0.0316 µM) was 98.9%, the viability, T/C (second compound 0.0316 µM, first compound 0.1 µM) was 92.6% and the viability, T/C (second compound 0.0316 µM, first compound 0.316 µM) was 87.8%. For the same compound, the viability, T/C (second compound 0.0316 µM, first compound 1 µM) was 93.7%, the viability, T/C (second compound 0.0316 µM, first compound 3.16 µM) was 91.6% and the viability, T/C (second compound 0.0316 µM, first compound 10 µM) was 74.1%. It also gave a viability, T/C (second compound 0.1 µM, first compound 0.0316 µM) of 51.6%, a viability, T/C (second compound 0.1 µM, first compound 0.1 µM) of 52.2% and a viability, T/C (second compound 0.1 µM, first compound 0.316 µM) of 50.8%. It also gave a viability, T/C (second compound 0.1 µM, first compound 1 µM) of 48.6%, a viability, T/C (second compound 0.1 µM, first compound 3.16 µM) of 47.7% and a viability, T/C (second compound 0.1 µM, first compound 10 µM) of 45.4%. It also gave a viability, T/C (second compound 0.316 µM, first compound 0.0316 µM) of 5.98%, a viability, T/C (second compound 0.316 µM, first compound 0.1 µM) of 5.2% and a viability, T/C (second compound 0.316 µM, first compound 0.316 µM) of 5.69%. The viability, T/C (second compound 0.316 µM, first compound 1 µM) was 4.19%, the viability, T/C (second compound 0.316 µM, first compound 3.16 µM) was 5.76% and the viability, T/C (second compound 0.316 µM, first compound 10 µM) was 4.81%. It also gave a viability, T/C (second compound 1 µM, first compound 0.0316 µM) of 0.92%, a viability, T/C (second compound 1 µM, first compound 0.1 µM) of 0.91% and a viability, T/C (second compound 1 µM, first compound 0.316 µM) of 0.75%. The viability, T/C (second compound 1 µM, first compound 1 µM) was 1.82%, the viability, T/C (second compound 1 µM, first compound 3.16 µM) was 1.86% and the viability, T/C (second compound 1 µM, first compound 10 µM) was 1.68%. It also gave a viability, T/C (second compound 3.16 µM, first compound 0.0316 µM) of 1.56%, a viability, T/C (second compound 3.16 µM, first compound 0.1 µM) of 2.17% and a viability, T/C (second compound 3.16 µM, first compound 0.316 µM) of 1.31%. It also gave a viability, T/C (second compound 3.16 µM, first compound 1 µM) of 2.48%, a viability, T/C (second compound 3.16 µM, first compound 3.16 µM) of 2.22% and a viability, T/C (second compound 3.16 µM, first compound 10 µM) of 3.07%. For the same compound, the viability, T/C (second compound 10 µM, first compound 0.0316 µM) was 0.96%, the viability, T/C (second compound 10 µM, first compound 0.1 µM) was 0.95% and the viability, T/C (second compound 10 µM, first compound 0.316 µM) was 1.74%. The viability, T/C (second compound 10 µM, first compound 1 µM) was 1.58%, the viability, T/C (second compound 10 µM, first compound 3.16 µM) was 2.68% and the viability, T/C (second compound 10 µM, first compound 10 µM) was 1.54%.
